Test [1] deals with mouse microglia in primary culture. In words: Microglia cell migration. It counts as cell-based.
For test [2] the test system is unchanged. Put plainly: cAMP production in mouse microglia. It counts as cell-based. In general terms: Cyclic AMP is a second messenger, typically raised through Gs and lowered through Gi signalling.
For a further test, the system named is DBT cells. In words: Killing of DBT mouse astrocytoma cells. It counts as cell-based. The conditions noted are these: FIG. 10c. An excerpt: Cannabinoid receptors are known to regulate cell migration.
The subject of the next test is CB1. Put plainly: [3H]-CP55940 binding competition at CB1. Conditions: FIG. 2c. Further details: species or system human. Here is the method: Fragments were amplified from total RNA of cell lines by reverse transcriptase-polymerase chain reaction (RT-PCR). Sequence was confirmed and the fragment was cloned into the EcoRI site of the pIRES2-eGFP-express vector. Cells were grown to approximately 80% confluence in 10 cm cell culture dishes, transfected with the cDNA pIRES-eGFP-vector containing the human CB1 or CB2 receptor using LipofectAMINE™ 2000 reagent in the serum-free media Opti-MEM 1 according to the manufacturer's description. Cells were subject to FACS sorting 48 his after transfection and single cell sorted based on dsRed expression into 96-well plates. Of the dsRed expressing positive clones, 3 were validated for CB1 and CB2 protein expression by radioligand binding analysis (methods discussed below).
Cells were grown to 90% confluence, rinsed twice with 1× PBS and stored at −80° C. until further use. To prepare crude cellular membrane fractions, dishes were removed from −80° C. and thawed at room temperature for 5 min. Once thawed, cells were lysed with ice-cold homogenization buffer (50 mM Tris, 1 mM EDTA, 3 mM MgCl2) and gently scraped from the dish. Total cell lysates from 3-5 dishes were collected on ice in 3 ml of ice-cold homogenization buffer Cells were homogenized at 6,500 rpm (PRO Scientific, Oxford, Conn.) twice for 10 sec and centrifuged at 11,500 rpm for 20 min at 4° C. […]

For test [3], the system named is mouse microglia in primary culture. In words: IP production in mouse microglia. It counts as cell-based.
For test [4] the test system is unchanged. Put plainly: NO production in mouse microglia. It counts as cell-based.
The test system of the next test is T98 g cells. In words: Signaling pathway and cell death in T98 g cells. It counts as cell-based, human. Here is the method:
To determine the signaling pathway activated by AI receptors, T98 g cells were treated and changes in select kinase and mediatior of cell death were measured.

For a further test, the system named is (HEK293 cells). Put plainly: [3H]-WIN55212-2 binding competition in HEK293 cells. Conditions: FIG. 2c. Further details: species or system human. Here is the method:
Cells were grown to 90% confluence, rinsed twice with 1× PBS and stored at −80° C. until further use. To prepare crude cellular membrane fractions, dishes were removed from −80° C. and thawed at room temperature for 5 min. Once thawed, cells were lysed with ice-cold homogenization buffer (50 mM Tris, 1 mM EDTA, 3 mM MgCl2) and gently scraped from the dish. Total cell lysates from 3-5 dishes were collected on ice in 3 ml of ice-cold homogenization buffer Cells were homogenized at 6,500 rpm (PRO Scientific, Oxford, Conn.) twice for 10 sec and centrifuged at 11,500 rpm for 20 min at 4° C. Supernatants were discarded and cell pellets were resuspended in homogenization buffer and tris rated 10 times in ice-cold homogenization buffer. Crude cellular membrane homogenates were stored at −80° C. until further use. […]
Due to the lipophillic nature of the tested compounds, all experiments were performed in silanized glass test tubes (Alltech, Deerfield, Ill.) with silanized pipette tips (VWR Scientific, Brisbane, Calif.) to reduce the loss of ligands. […] For competition binding assays, specific binding was calculated by subtracting the average dpm (disintegrations per minute, dpm) if non-specific points from the individual dpm values for each total binding point and expressed as either fmol/mg for saturation analyses or as a percent of total radioligand binding in competition curves. […]

Molecules are shown by their SMILES.

Here are results for one compound from patent publication US20150018369A1 (priority 2012, published 2015).

Take `CCn1c(C)c(C(=O)c2ccc(C)c3ccccc23)c2ccccc21` [ST-11]: in test [1], the “microglia cell migration stimulated by ATP” value was “inhibits”. Further, in test [2], the “cAMP production stimulated by Isoproterenol” value is “inhibits cAMP production”. Besides, in the test with DBT cells, the “killing of DBT cells” value is listed as “kills DBT cells”. The “competition for [3H]-CP55940 binding at CB1” value in the test on CB1 was “but not for [^3H]-CP55940 binding”. In test [3], the IP production result is “does not stimulate or inhibit IP production”. The NO production result in test [4] is on record as “does not stimulate or inhibit”. Besides, in the test on T98 g cells (after 48 hrs), the “cell death (cell number, nuclear fragmentation, cell blebbing)” value is on record as “followed by cell death”. Further, in the test with T98 g cells (within hours), the PARP cleavage result is given as “cleaves PARP”, the “activation of PLK-1” value is given as “induces the activation of PLK-1” and the “caspase 3 activation” value is on record as “caspase 3 activation”. For the same compound, in the test with (HEK293 cells), the “competition for [3H]-WIN55212-2 binding” value is “competes”.
